Laboratory results taken from ChEMBL document CHEMBL1909528, “Synthesis and 2D QSAR of O-sulphonated β-aminols derivatives as novel antifungal and antibacterial agents” (Bioorg Med Chem Lett, 2011).

Assays:
[1] = test system: Cryptococcus neoformans; assay: Antifungal activity against Cryptococcus neoformans by broth microdilution method; assay type: functional
[2] = test system: Aspergillus fumigatus; assay: Antifungal activity against Aspergillus fumigatus by broth microdilution method; assay type: functional
[3] = test system: Candida parapsilosis; assay: Antifungal activity against Candida parapsilosis ATCC 22019 by broth microdilution method; assay type: functional; details: Lodderomyces parapsilosis
[4] = test system: Staphylococcus aureus; assay: Antibacterial activity against Staphylococcus aureus ATCC 25923 by broth microdilution method; assay type: functional, organism-based
[5] = test system: Trichophyton mentagrophytes; assay: Antifungal activity against Trichophyton mentagrophytes by broth microdilution method; assay type: functional, organism-based
[6] = test system: Escherichia coli; assay: Antibacterial activity against Escherichia coli ATCC 9637 by broth microdilution method; assay type: functional, organism-based
[7] = test system: Sporothrix schenckii; assay: Antifungal activity against Sporothrix schenckii by broth microdilution method; assay type: functional, organism-based
[8] = test system: Candida albicans; assay: Antifungal activity against Candida albicans by broth microdilution method; assay type: functional, organism-based

SMILES	MIC [1] [µM]	MIC [2] [µM]	MIC [3] [µM]	MIC [4] [µM]	IC50 ([4]; read-out: IC50) [µM]	IC50 ([4]; read-out: pIC50 (converted)) [µM]	MIC [5] [µM]	IC50 ([5]; read-out: IC50) [µM]	IC50 ([5]; read-out: pIC50 (converted)) [µM]	MIC [6] [µM]	IC50 ([6]; read-out: IC50) [µM]	IC50 ([6]; read-out: pIC50 (converted)) [µM]	MIC [7] [µM]	IC50 ([7]; read-out: IC50) [µM]	IC50 ([7]; read-out: pIC50 (converted)) [µM]	MIC [8] [µM]	IC50 ([8]; read-out: IC50) [µM]	IC50 ([8]; read-out: pIC50 (converted)) [µM]
CC(C)(C)OC(=O)N(Cc1ccc(F)cc1)CC(OS(=O)(=O)c1cccc([N+](=O)[O-])c1)c1ccccc1 (centres undefined)	> 50	> 50	> 50	< 50	39.9	39.8	–	–	–	–	–	–	–	–	–	–	–	–
CC(C)(C)OC(=O)N(Cc1ccccc1)CC(OS(=O)(=O)c1cccc2ccccc12)c1ccccc1 (centres undefined)	> 50	> 50	> 50	–	–	–	< 50	5.48	5.48	< 50	1.26	1.26	–	–	–	–	–	–
CC(C)(C)OC(=O)N(Cc1ccccc1)CC(OS(=O)(=O)c1cccc([N+](=O)[O-])c1)c1ccccc1 (centres undefined)	> 50	> 50	> 50	–	–	–	–	–	–	–	–	–	< 50	5.95	5.95	–	–	–
CC(C)(C)OC(=O)N(Cc1ccccc1)CC(OS(=O)(=O)c1ccc2ccccc2c1)c1ccccc1 (centres undefined)	> 50	> 50	> 50	–	–	–	< 50	2.12	2.12	< 50	3.54	3.54	–	–	–	–	–	–
CC(C)(C)OC(=O)N(Cc1ccc(F)cc1)CC(OS(=O)(=O)c1cccc(Cl)c1Cl)c1ccccc1 (centres undefined)	> 50	> 50	> 50	< 50	14.7	14.7	< 50	0.53	–	–	–	–	< 50	7.46	7.46	–	–	–
CC(C)(C)OC(=O)N(Cc1ccc(F)cc1)CC(OS(=O)(=O)c1c(Cl)cccc1Cl)c1ccccc1 (centres undefined)	> 50	> 50	> 50	< 50	12.5	12.5	–	–	–	–	–	–	–	–	–	–	–	–
O=[N+]([O-])c1cccc(S(=O)(=O)OC(CNCc2ccccc2)c2ccccc2)c1 (centres undefined)	> 50	> 50	> 50	< 50	0.842	1.19	–	–	–	–	–	–	–	–	–	< 50	30.8	30.8
COc1ccc(C(CN(Cc2ccccc2)C(=O)OC(C)(C)C)OS(=O)(=O)c2ccc(F)cc2)cc1 (centres undefined)	> 50	> 50	> 50	–	–	–	< 50	22.8	22.9	–	–	–	–	–	–	–	–	–
CC(C)(C)OC(=O)N(Cc1ccccc1)CC(OS(=O)(=O)c1ccc([N+](=O)[O-])cc1[N+](=O)[O-])c1ccccc1 (centres undefined)	> 50	> 50	> 50	–	–	–	–	–	–	< 50	23.3	23.3	–	–	–	< 50	0.54	–
COc1ccc(C(CN(Cc2ccccc2)C(=O)OC(C)(C)C)OS(=O)(=O)c2cccc(Cl)c2Cl)cc1 (centres undefined)	> 50	> 50	> 50	–	–	–	< 50	14.9	14.9	–	–	–	< 50	13.4	13.4	–	–	–
CC(C)(C)OC(=O)N(Cc1ccccc1)CC(OS(=O)(=O)c1ccc(C#N)cc1)c1ccccc1 (centres undefined)	> 50	> 50	> 50	–	–	–	< 50	9.48	9.48	< 50	18.5	18.5	< 50	32.7	32.7	< 50	8.59	8.59
COc1ccc(C(CN(Cc2ccccc2)C(=O)OC(C)(C)C)OS(=O)(=O)c2c(Cl)cccc2Cl)cc1 (centres undefined)	> 50	> 50	> 50	–	–	–	< 50	13.5	13.6	–	–	–	–	–	–	–	–	–
O=S(=O)(OC(CNCc1ccccc1)c1ccccc1)c1c(Cl)cccc1Cl (centres undefined)	> 50	> 50	> 50	< 50	11.6	11.6	< 50	44.7	44.8	–	–	–	< 50	12	12	< 50	18	18
CC(C)(C)OC(=O)N(Cc1ccccc1)CC(OS(=O)(=O)c1ccc([N+](=O)[O-])cc1)c1ccccc1 (centres undefined)	> 50	> 50	> 50	–	–	–	< 50	5.73	5.73	< 50	9.02	9.02	–	–	–	–	–	–
CC(C)(C)OC(=O)N(Cc1ccccc1)CC(OS(=O)(=O)c1c(Cl)cccc1Cl)c1ccccc1 (centres undefined)	> 50	> 50	> 50	–	–	–	–	–	–	< 50	3.13	3.13	< 50	11.4	11.4	–	–	–
O=S(=O)(OC(CNCc1ccccc1)c1ccccc1)c1cccc(Cl)c1Cl (centres undefined)	> 50	> 50	> 50	–	–	–	< 50	5.89	5.89	–	–	–	< 50	15.6	15.6	–	–	–
Cc1ccc(S(=O)(=O)OC(CN(Cc2ccccc2)C(=O)OC(C)(C)C)c2ccccc2)cc1 (centres undefined)	> 50	> 50	> 50	–	–	–	< 50	11.7	11.7	< 50	7.5	7.5	< 50	32.7	32.7	< 50	4.07	4.07
Cc1ccc(C(CN(Cc2ccccc2)C(=O)OC(C)(C)C)OS(=O)(=O)c2cccc(Cl)c2Cl)cc1 (centres undefined)	> 50	> 50	> 50	–	–	–	–	–	–	–	–	–	< 50	10.7	10.7	–	–	–
O=S(=O)(OC(CNCc1ccccc1)c1ccccc1)c1ccc(F)cc1 (centres undefined)	> 50	> 50	> 50	< 50	22.6	22.6	< 50	10.2	10.2	–	–	–	–	–	–	< 50	41.9	41.9
COc1ccc(CN(CC(OS(=O)(=O)c2ccc(F)cc2)c2ccccc2)C(=O)OC(C)(C)C)cc1 (centres undefined)	> 50	> 50	> 50	–	–	–	< 50	2.76	2.76	–	–	–	< 50	23.2	23.1	–	–	–
CC(C)(C)OC(=O)N(Cc1ccc(Cl)c(Cl)c1)CC(OS(=O)(=O)c1cccc(Cl)c1Cl)c1ccccc1 (centres undefined)	> 50	> 50	> 50	–	–	–	–	–	–	–	–	–	< 50	23.3	23.3	–	–	–
CC(C)(C)OC(=O)N(Cc1ccc(Cl)c(Cl)c1)CC(OS(=O)(=O)c1cccc([N+](=O)[O-])c1)c1ccccc1 (centres undefined)	> 50	> 50	> 50	–	–	–	–	–	–	–	–	–	< 50	24.4	24.4	–	–	–

More lines, now with the values ahead:

MIC [1] [µM]	MIC [2] [µM]	MIC [3] [µM]	MIC [4] [µM]	IC50 ([4]; read-out: IC50) [µM]	IC50 ([4]; read-out: pIC50 (converted)) [µM]	MIC [5] [µM]	IC50 ([5]; read-out: IC50) [µM]	IC50 ([5]; read-out: pIC50 (converted)) [µM]	MIC [6] [µM]	IC50 ([6]; read-out: IC50) [µM]	IC50 ([6]; read-out: pIC50 (converted)) [µM]	MIC [7] [µM]	IC50 ([7]; read-out: IC50) [µM]	IC50 ([7]; read-out: pIC50 (converted)) [µM]	MIC [8] [µM]	IC50 ([8]; read-out: IC50) [µM]	IC50 ([8]; read-out: pIC50 (converted)) [µM]	SMILES
> 50	> 50	> 50	–	–	–	< 50	0.46	–	< 50	0.83	1.2	< 50	8.66	8.66	< 50	1.52	1.52	CC(C)(C)OC(=O)N(Cc1ccccc1)CC(OS(=O)(=O)c1ccc(F)cc1)c1ccccc1 (centres undefined)
> 50	> 50	> 50	–	–	–	< 50	6.11	6.11	–	–	–	< 50	46.4	46.4	< 50	12.5	12.5	CC(C)c1cc(C(C)C)c(S(=O)(=O)OC(CN(Cc2ccccc2)C(=O)OC(C)(C)C)c2ccccc2)c(C(C)C)c1 (centres undefined)
> 50	> 50	> 50	–	–	–	< 50	0.33	–	–	–	–	< 50	26.7	26.7	–	–	–	CC(C)(C)OC(=O)N(Cc1ccccc1)CC(OS(=O)(=O)c1cccc(Cl)c1Cl)c1ccccc1 (centres undefined)
> 50	> 50	> 50	–	–	–	< 50	2.24	2.24	–	–	–	< 50	6.24	6.24	–	–	–	COc1ccc(CN(CC(OS(=O)(=O)c2cccc([N+](=O)[O-])c2)c2ccccc2)C(=O)OC(C)(C)C)cc1 (centres undefined)
> 50	> 50	> 50	–	–	–	< 50	4.39	4.4	–	–	–	–	–	–	–	–	–	Cc1ccc(C(CN(Cc2ccccc2)C(=O)OC(C)(C)C)OS(=O)(=O)c2c(Cl)cccc2Cl)cc1 (centres undefined)
> 50	> 50	> 50	< 50	15.3	15.3	–	–	–	–	–	–	< 50	43.3	43.3	–	–	–	CC(C)(C)OC(=O)N(Cc1ccc(Cl)c(Cl)c1)CC(OS(=O)(=O)c1ccc(F)cc1)c1ccccc1 (centres undefined)
> 50	> 50	> 50	–	–	–	< 50	24.4	24.4	–	–	–	< 50	28.4	28.4	< 50	6.44	6.44	CC(C)(C)OC(=O)N(Cc1ccccc1)CC(OS(=O)(=O)c1ccccc1C(F)(F)F)c1ccccc1 (centres undefined)
> 50	> 50	> 50	< 50	22.6	22.6	–	–	–	–	–	–	–	–	–	–	–	–	CC(C)(C)OC(=O)N(Cc1ccc(F)cc1)CC(OS(=O)(=O)c1ccc(F)cc1)c1ccccc1 (centres undefined)
> 50	> 50	> 50	–	–	–	< 50	12.6	12.6	–	–	–	< 50	31.2	31.2	< 50	41.6	41.6	Cc1cc(C)cc(S(=O)(=O)OC(CN(Cc2ccccc2)C(=O)OC(C)(C)C)c2ccccc2)c1 (centres undefined)
